Values joined by “and” are separate entries in the source; they are usually repeats but may differ in a detail not shown here. Equal values may be shown once.
Key:
[1] = target: ligand binding domain of the estrogen receptor beta chain (ERβLBD) that contained a point mutation at amino acid residue 418 (pm418) (Homo sapiens, UniProt Q92731); assay: ER agonist cell assay (ERβ), Huh-7 co-transfection, luciferase; type: cell-based; details: for EC50: Huh-7 cells co-transfected with pG5luc and ERβLBD(pm418), overnight incubation, luciferase; for ERβ % of Max E2 Response: percent of the maximum estradiol fold change, Huh-7, pG5luc and ERβLBD(pm418)
[2] = system: hairless female SKH, 1-hr mice; assay: Animal model for reversal of wrinkles: skin thickness model, topical dosing, skin thickness and hyaluronic acid; type: in vivo, mouse; details: three days
Source text: Animal Model for Reversal of Wrinkles
Uzuka et al. describes an increase in mouse back skin water content, hyaluronic acid (HA) content, and hyaluronic acid synthetase activity following topical application or subcutaneous injection of estradiol (Biochimica et Biophysica Acta, 627, 199-206, 1980; Biochimica et Biophysica Acta 673, 387-393, 1981). […] Thus, this model may be used to as a preliminary screen to assess the potential for estrogen modulators to alleviate wrinkles in human skin.
The skin thickness model uses hairless female SKH, 1-hr mice. Mice aged to approximately 11 weeks are introduced into the laboratory environment and acclimated for at least 1 week prior to use in the study may be used. Each group typically consisted of 7 animals that may be run in parallel with vehicle and the positive control estradiol. Based on binding and/or cellular assay data, compounds are chosen for screening in this model. Those compounds include the products of Examples, 2, 9, 15, 46, 47, 48, 51, 52, 61, 135, and 137. Prior to topical application to mouse dorsal skin, a sufficient quantity of each compound is dissolved in a solvent generally consisting of ethanol and propylene glycol (70/30% v/v) (vehicle) to achieve the final concentration specified in Table C below. Animals are dosed topically QD or BID, for three days. Each dose consisted of 100 microliters of vehicle or drug applied uniformly to the entire dorsal surface (˜18 cm^2). All animals are sacrificed approximately 18-24 hours after the final dose. Skin thickness (ST) is measured using a caliper. HA is extracted from the skin and quantitated using commercially-available enzyme-linked immunosorbent assays (ELISAs)(HA).
Data are presented as percent of the estradiol response after subtracting out the ST for vehicle-treated mouse skin. The estradiol response is set to 100% and the vehicle resoibse becines 0%.

[3] = target: T1, ligand binding domain of the estrogen receptor alpha chain (ERαLBD) (Homo sapiens, UniProt P03372); assay: ER agonist cell assay (ERα), Huh-7 co-transfection, luciferase; type: cell-based; details: for EC50: Huh-7 cells co-transfected with pG5luc and ERαLBD, overnight incubation, luciferase; for ERα % of Max E2 Response: percent of the maximum estradiol fold change, Huh-7, pG5luc and ERαLBD
T1 construct: expressed in transfected cells; host or cells: Huh-7 human hepatoma cells, transient transfection with FuGENE 6
T1 sequence (P03372 311-547 limits assumed): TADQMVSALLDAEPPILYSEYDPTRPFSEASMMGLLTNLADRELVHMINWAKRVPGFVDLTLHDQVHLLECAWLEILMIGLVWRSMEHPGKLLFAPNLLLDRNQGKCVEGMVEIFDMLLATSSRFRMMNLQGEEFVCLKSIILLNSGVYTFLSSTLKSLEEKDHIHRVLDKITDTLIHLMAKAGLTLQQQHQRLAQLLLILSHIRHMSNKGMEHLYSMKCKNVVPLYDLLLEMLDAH

[4] = 1% topical, BID, vehicle 0%, estradiol 100%

| melting point [°C] | EC50 [1] [nM] | ERβ % of Max E2 Response [1] [%] | EC50 [3] [nM] | ERα % of Max E2 Response [3] [%] | Compound | HA (hyaluronic acid), percent of the estradiol response ([2]; 0.5% topical, BID) | ST (skin thickness), percent of the estradiol response ([2]; 0.5% topical, BID) | HA (hyaluronic acid), percent of the estradiol response ([2]; 1% topical, QD) | ST (skin thickness), percent of the estradiol response ([2]; 1% topical, QD) | ST (skin thickness), percent of the estradiol response [2, 4] | other results |
| --- | --- | --- | --- | --- | --- | --- | --- | --- | --- | --- | --- |
| 219 to 221 | 43.2 | 99.7 | 33.1 | 106 | C[C@@H](O)C1(c2onc(-c3ccc(O)cc3)c2-c2ccccc2)CC1 [Example 46, (R)-(−)-4-{5-[1-(1-Hydroxy-ethyl)-cyclopropyl]-4-phenyl-isoxazol-3-yl}-phenol] | 39% and 68% and 76% | 53% and 71% and 73% | 48% | 36% |  | HA (hyaluronic acid), percent of the estradiol response ([2]; 0.015% topical, BID): 11%; ST (skin thickness), percent of the estradiol response ([2]; 0.015% topical, BID): 20%; HA (hyaluronic acid), percent of the estradiol response ([2]; 0.05% topical, BID): 52%; ST (skin thickness), percent of the estradiol response ([2]; 0.05% topical, BID): 47%; HA (hyaluronic acid), percent of the estradiol response ([2]; 0.15% topical, BID): 55%; ST (skin thickness), percent of the estradiol response ([2]; 0.15% topical, BID): 65% |
| 175 to 176 | 144 | 87.4 | 22.4 | 92 | CCC(O)C1(c2onc(-c3ccc(O)cc3)c2-c2ccccc2)CC1 (racemic) [Example 47, (±)-4-{5-[1-(1-Hydroxy-propyl)-cyclopropyl]-4-phenyl-isoxazol-3-yl}-phenol] |  |  |  |  | 53% | HA (hyaluronic acid), percent of the estradiol response [2, 4]: 59% |
| 163 to 164 | 84.7 | 71.8 | 31.3 | 88.8 | CC[C@@H](O)C1(c2onc(-c3ccc(O)cc3)c2-c2ccccc2)CC1 [Example 48, (R)-(−)-4-{5-[1-(1-Hydroxy-propyl)-cyclopropyl]-4-phenyl-isoxazol-3-yl}-phenol] | 84% | 78% | 47% and 42% | 64% and 41% | 72% and 89% | HA (hyaluronic acid), percent of the estradiol response ([2]; 0.03% topical, BID): 26%; ST (skin thickness), percent of the estradiol response ([2]; 0.03% topical, BID): 33%; HA (hyaluronic acid), percent of the estradiol response ([2]; 0.03% topical, QD): 18%; ST (skin thickness), percent of the estradiol response ([2]; 0.03% topical, QD): 13%; HA (hyaluronic acid), percent of the estradiol response ([2]; 0.1% topical, BID): 63%; ST (skin thickness), percent of the estradiol response ([2]; 0.1% topical, BID): 58%; HA (hyaluronic acid), percent of the estradiol response ([2]; 0.1% topical, QD): 32%; ST (skin thickness), percent of the estradiol response ([2]; 0.1% topical, QD): 29%; HA (hyaluronic acid), percent of the estradiol response ([2]; 0.3% topical, BID): 96%; ST (skin thickness), percent of the estradiol response ([2]; 0.3% topical, BID): 80%; HA (hyaluronic acid), percent of the estradiol response ([2]; 0.3% topical, QD): 41%; ST (skin thickness), percent of the estradiol response ([2]; 0.3% topical, QD): 57% |
